Test results published in patent publication US12421211B2, “Heterocyclic compounds” (Hoffmann-La Roche Inc., priority 2021, dated 2025).
Counter-ions that a name gives are not always drawn.

The molecules below were run on Acinetobacter baumannii ATCC17961 (assay: Antimicrobial susceptibility testing: 90% growth inhibitory concentration (IC90) determination). Settings: Acinetobacter baumannii, ATCC17961, 16 h, 90% growth inhibitory concentration, Acinetobacter baumannii ATCC17961, Iso-Sensitest broth, OD 600 nm over 16 h; read-out: ATCC 17961 IC90.
Assay type: cell-based
Method in brief: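 A. baumannii ATCC17961 at ~5×10^5 CFU/ml in Iso-Sensitest broth exposed to 10-point twofold dilutions (e.g. 50–0.097 μM final), 35±2° C. OD600 read every 20 minutes over 16h; IC50 and IC90 derived from inhibition during logarithmic growth.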

Structure (SMILES) | IC90 [µM]
Cn1c(-c2ccc(-c3c[nH]nc3-c3ccccc3)c(F)c2F)cnc1C(=O)Nc1ccc(C(=O)N2CCN(C(=O)C3CC[N+](C)(C)CC3)CC2)c(Cl)c1 [Example F27, N-[3-chloro-4-[4-(1,1-dimethylpiperidin-1-ium-4-carbonyl)piperazine-1-carbonyl]phenyl]-5-[2,3-difluoro-4-(3-phenyl-1H-pyrazol-4-yl)phenyl]-1-methyl-imidazole-2-carboxamide; formate] | 0.4
Cn1c(-c2ccc(-c3cnn4c3CCC4)c(F)c2F)cnc1C(=O)Nc1ccc(C(=O)N2CCN(C(=O)C3CC[N+](C)(C)CC3)CC2)c(Cl)c1 [Example F28, N-[3-chloro-4-[4-(1,1-dimethylpiperidin-1-ium-4-carbonyl)piperazine-1-carbonyl]phenyl]-5-[4-(5,6-dihydro-4H-pyrrolo[1,2-b]pyrazol-3-yl)-2,3-difluoro-phenyl]-1-methyl-imidazole-2-carboxamide; formate] | 0.27
COCCn1ncc(-c2ccc(-c3cnc(C(=O)Nc4ccc(C(=O)N5CCN(C(=O)C6CC[N+](C)(C)CC6)CC5)c(Cl)c4)n3C)c(F)c2F)c1Cl [Example F31, N-[3-chloro-4-[4-(1,1-dimethylpiperidin-1-ium-4-carbonyl)piperazine-1-carbonyl]phenyl]-5-[4-[5-chloro-1-(2-methoxyethyl)pyrazol-4-yl]-2,3-difluoro-phenyl]-1-methyl-imidazole-2-carboxamide; formate] | 0.067
Cn1c(-c2ccc(-c3cn(CCS(C)(=O)=O)nc3C(F)(F)F)c(F)c2F)cnc1C(=O)Nc1ccc(C(=O)N2CCN(C(=O)C3CC[N+](C)(C)CC3)CC2)c(Cl)c1 [Example F32, N-[3-chloro-4-[4-(1,1-dimethylpiperidin-1-ium-4-carbonyl)piperazine-1-carbonyl]phenyl]-5-[2,3-difluoro-4-[1-(2-methylsulfonylethyl)-3-(trifluoro-methyl)pyrazol-4-yl]phenyl]-1-methyl-imidazole-2-carboxamide; formate] | 0.58
CC(O)Cn1cc(-c2ccc(-c3cnc(C(=O)Nc4ccc(C(=O)N5CCN(C(=O)C6CC[N+](C)(C)CC6)CC5)c(Cl)c4)n3C)c(F)c2F)c(C(F)(F)F)n1 (stereo not shown) [Example F33, N-[3-chloro-4-[4-(1,1-dimethylpiperidin-1-ium-4-carbonyl)piperazine-1-carbonyl]phenyl]-5-[2,3-difluoro-4-[1-(2-hydroxypropyl)-3-(trifluoromethyl)pyrazol-4-yl]phenyl]-1-methyl-imidazole-2-carboxamide; formate] | 0.36
Cn1c(-c2ccc(-c3cn(CCCC(N)=O)nc3C(F)(F)F)c(F)c2F)cnc1C(=O)Nc1ccc(C(=O)N2CCN(C(=O)C3CC[N+](C)(C)CC3)CC2)c(Cl)c1 [Example F34, 5-[4-[1-(4-amino-4-oxo-butyl)-3-(trifluoro-methyl)pyrazol-4-yl]-2,3-difluoro-phenyl]-N-[3-chloro-4-[4-(1,1-dimethylpiperidin-1-ium-4-carbonyl)piperazine-1-carbonyl]phenyl]-1-methyl-imidazole-2-carboxamide; formate] | 0.23
COCCn1cc(-c2ccc(-c3cnc(C(=O)Nc4ccc(C(=O)N5CCN(C(=O)C6CC[N+](C)(C)CC6)CC5)c(Cl)c4)n3C)c(F)c2F)c(C(F)(F)F)n1 [Example F36, N-[3-chloro-4-[4-(1,1-dimethylpiperidin-1-ium-4-carbonyl)piperazine-1-carbonyl]phenyl]-5-[2,3-difluoro-4-[1-(2-methoxyethyl)-3-(trifluoromethyl)pyrazol-4-yl]phenyl]-1-methyl-imidazole-2-carboxamide; formate] | 0.58
Cn1c(-c2ccc(-c3cnn(CCN4CCOCC4)c3C(F)(F)F)c(F)c2F)cnc1C(=O)Nc1ccc(C(=O)N2CCN(C(=O)C3CC[N+](C)(C)CC3)CC2)c(Cl)c1 [Example F37, N-[3-chloro-4-[4-(1,1-dimethylpiperidin-1-ium-4-carbonyl)piperazine-1-carbonyl]phenyl]-5-[2,3-difluoro-4-[1-(2-morpholinoethyl)-5-(trifluoromethyl)pyrazol-4-yl]phenyl]-1-methyl-imidazole-2-carboxamide; formate] | 0.69
COCCCn1cc(-c2ccc(-c3cnc(C(=O)Nc4ccc(C(=O)N5CCN(C(=O)C6CC[N+](C)(C)CC6)CC5)c(Cl)c4)n3C)c(F)c2F)c(C(F)(F)F)n1 [Example F38, N-[3-chloro-4-[4-(1,1-dimethylpiperidin-1-ium-4-carbonyl)piperazine-1-carbonyl]phenyl]-5-[2,3-difluoro-4-[1-(3-methoxypropyl)-3-(trifluoromethyl)pyrazol-4-yl]phenyl]-1-methyl-imidazole-2-carboxamide; formate] | 0.76
Cc1nn(CC2CCOCC2)cc1-c1ccc(-c2cnc(C(=O)Nc3ccc(C(=O)N4CCN(C(=O)C5CC[N+](C)(C)CC5)CC4)c(Cl)c3)n2C)c(F)c1F [Example F39, N-[3-chloro-4-[4-(1,1-dimethylpiperidin-1-ium-4-carbonyl)piperazine-1-carbonyl]phenyl]-5-[2,3-difluoro-4-[3-methyl-1-(tetrahydropyran-4-ylmethyl)pyrazol-4-yl]phenyl]-1-methyl-imidazole-2-carboxamide; formate] | 0.34
Cc1nn(-c2ccc(N)cn2)cc1-c1ccc(-c2cnc(C(=O)Nc3ccc(C(=O)N4CCN(C(=O)C5CC[N+](C)(C)CC5)CC4)c(Cl)c3)n2C)c(F)c1F [Example F40, 5-[4-[1-(5-amino-2-pyridyl)-3-methyl-pyrazol-4-yl]-2,3-difluoro-phenyl]-N-[3-chloro-4-[4-(1,1-dimethylpiperidin-1-ium-4-carbonyl)piperazine-1-carbonyl]phenyl]-1-methyl-imidazole-2-carboxamide; chloride] | 0.61
Cc1nn(Cc2ccccn2)cc1-c1ccc(-c2cnc(C(=O)Nc3ccc(C(=O)N4CCN(C(=O)C5CC[N+](C)(C)CC5)CC4)c(Cl)c3)n2C)c(F)c1F [Example F41, N-[3-chloro-4-[4-(1,1-dimethylpiperidin-1-ium-4-carbonyl)piperazine-1-carbonyl]phenyl]-5-[2,3-difluoro-4-[3-methyl-1-(2-pyridylmethyl)pyrazol-4-yl]phenyl]-1-methyl-imidazole-2-carboxamide; formate] | 0.15
Cc1nn(-c2cn[nH]c2)cc1-c1ccc(-c2cnc(C(=O)Nc3ccc(C(=O)N4CCN(C(=O)C5CC[N+](C)(C)CC5)CC4)c(Cl)c3)n2C)c(F)c1F [Example F42, N-[3-chloro-4-[4-(1,1-dimethylpiperidin-1-ium-4-carbonyl)piperazine-1-carbonyl]phenyl]-5-[2,3-difluoro-4-[3-methyl-1-(1H-pyrazol-4-yl)pyrazol-4-yl]phenyl]-1-methyl-imidazole-2-carboxamide; formate] | 0.21
Cc1nn(Cc2ccc(N)cn2)cc1-c1ccc(-c2cnc(C(=O)Nc3ccc(C(=O)N4CCN(C(=O)C5CC[N+](C)(C)CC5)CC4)c(Cl)c3)n2C)c(F)c1F [Example F43, 5-[4-[1-[(5-amino-2-pyridyl)methyl]-3-methyl-pyrazol-4-yl]-2,3-difluoro-phenyl]-N-[3-chloro-4-[4-(1,1-dimethylpiperidin-1-ium-4-carbonyl)piperazine-1-carbonyl]phenyl]-1-methyl-imidazole-2-carboxamide; chloride] | 0.57
Cn1nccc1-c1n[nH]cc1-c1ccc(-c2cnc(C(=O)Nc3ccc(C(=O)N4CCN(C(=O)C5CC[N+](C)(C)CC5)CC4)c(Cl)c3)n2C)c(F)c1F [Example F44, N-[3-chloro-4-[4-(1,1-dimethylpiperidin-1-ium-4-carbonyl)piperazine-1-carbonyl]phenyl]-5-[2,3-difluoro-4-[3-(2-methylpyrazol-3-yl)-1H-pyrazol-4-yl]phenyl]-1-methyl-imidazole-2-carboxamide; formate] | 0.73
Cn1c(-c2ccc(-c3c[nH]nc3-c3cccc(F)c3)c(F)c2F)cnc1C(=O)Nc1ccc(C(=O)N2CCN(C(=O)C3CC[N+](C)(C)CC3)CC2)c(Cl)c1 [Example F45, N-[3-chloro-4-[4-(1,1-dimethylpiperidin-1-ium-4-carbonyl)piperazine-1-carbonyl]phenyl]-5-[2,3-difluoro-4-[3-(3-fluorophenyl)-1H-pyrazol-4-yl]phenyl]-1-methyl-imidazole-2-carboxamide; formate] | 0.31
Cc1nn(CCn2ccccc2=O)cc1-c1ccc(-c2cnc(C(=O)Nc3ccc(C(=O)N4CCN(C(=O)C5CC[N+](C)(C)CC5)CC4)c(Cl)c3)n2C)c(F)c1F [Example F46, N-[3-chloro-4-[4-(1,1-dimethylpiperidin-1-ium-4-carbonyl)piperazine-1-carbonyl]phenyl]-5-[2,3-difluoro-4-[3-methyl-1-[2-(2-oxo-1-pyridyl)ethyl]pyrazol-4-yl]phenyl]-1-methyl-imidazole-2-carboxamide; formate] | 1.1
Cn1cc(-c2n[nH]cc2-c2ccc(-c3cnc(C(=O)Nc4ccc(C(=O)N5CCN(C(=O)C6CC[N+](C)(C)CC6)CC5)c(Cl)c4)n3C)c(F)c2F)cn1 [Example F47, N-[3-chloro-4-[4-(1,1-dimethylpiperidin-1-ium-4-carbonyl)piperazine-1-carbonyl]phenyl]-5-[2,3-difluoro-4-[3-(1-methylpyrazol-4-yl)-1H-pyrazol-4-yl]phenyl]-1-methyl-imidazole-2-carboxamide; formate] | 0.53
Cn1c(-c2ccc(-c3c[nH]nc3-c3cn[nH]c3)c(F)c2F)cnc1C(=O)Nc1ccc(C(=O)N2CCN(C(=O)C3CC[N+](C)(C)CC3)CC2)c(Cl)c1 [Example F48, N-[3-chloro-4-[4-(1,1-dimethylpiperidin-1-ium-4-carbonyl)piperazine-1-carbonyl]phenyl]-5-[2,3-difluoro-4-[3-(1H-pyrazol-4-yl)-1H-pyrazol-4-yl]phenyl]-1-methyl-imidazole-2-carboxamide; formate] | 0.47
